# From ChEMBL document CHEMBL3832542, “DailyMed|setid=00f30ef0-e65c-4b41-ad1b-afaab9bcfc7d | CLONIDINE- clonidine patch, extended release|Lake Erie Medical DBA Quality Care Products LLC”
# Legend:
# [1] = Pharmacokinetic parameters for Clonidine evaluated following oral or intravenous administration of Clonidine to subjects.; details: human, in vivo
# [2] = Steady-state pharmacokinetic parameters for Clonidine evaluated following transdermal administration of 0.1, 0,2 and 0.3 mg doses of Clonidine to the upper outer arm for 7 days.; details: human, in vivo, topical or ocular
structure (smiles),measurement,setting,value
Clc1cccc(Cl)c1N=C1NCCN1 [CLONIDINE],CL renal,[1],102 mL/min
same,Vd,[1],197 L
same,clearance,[1],177 mL/min
same,half-life,[1],12 to 16 h
same,bioavailability at 168 h,[2],60%
same,half-life at 168 h,[2],24 h
